Measured values published in PMC5310657, “Effects of an unusual poison identify a lifespan role for Topoisomerase 2 in Saccharomyces cerevisiae” (Aging (Albany NY), 2017).

What was measured:
Type in all cases: biochemical
[1] = target: T1, yeast topoisomerase 2 (yTop2) (Saccharomyces cerevisiae, UniProt P06786); test: in vitro pUC18 plasmid linearization (DNA cleavage) assay, reference Top2 poison
T1 construct: gene TOP2
T1 sequence (P06786 1-1428): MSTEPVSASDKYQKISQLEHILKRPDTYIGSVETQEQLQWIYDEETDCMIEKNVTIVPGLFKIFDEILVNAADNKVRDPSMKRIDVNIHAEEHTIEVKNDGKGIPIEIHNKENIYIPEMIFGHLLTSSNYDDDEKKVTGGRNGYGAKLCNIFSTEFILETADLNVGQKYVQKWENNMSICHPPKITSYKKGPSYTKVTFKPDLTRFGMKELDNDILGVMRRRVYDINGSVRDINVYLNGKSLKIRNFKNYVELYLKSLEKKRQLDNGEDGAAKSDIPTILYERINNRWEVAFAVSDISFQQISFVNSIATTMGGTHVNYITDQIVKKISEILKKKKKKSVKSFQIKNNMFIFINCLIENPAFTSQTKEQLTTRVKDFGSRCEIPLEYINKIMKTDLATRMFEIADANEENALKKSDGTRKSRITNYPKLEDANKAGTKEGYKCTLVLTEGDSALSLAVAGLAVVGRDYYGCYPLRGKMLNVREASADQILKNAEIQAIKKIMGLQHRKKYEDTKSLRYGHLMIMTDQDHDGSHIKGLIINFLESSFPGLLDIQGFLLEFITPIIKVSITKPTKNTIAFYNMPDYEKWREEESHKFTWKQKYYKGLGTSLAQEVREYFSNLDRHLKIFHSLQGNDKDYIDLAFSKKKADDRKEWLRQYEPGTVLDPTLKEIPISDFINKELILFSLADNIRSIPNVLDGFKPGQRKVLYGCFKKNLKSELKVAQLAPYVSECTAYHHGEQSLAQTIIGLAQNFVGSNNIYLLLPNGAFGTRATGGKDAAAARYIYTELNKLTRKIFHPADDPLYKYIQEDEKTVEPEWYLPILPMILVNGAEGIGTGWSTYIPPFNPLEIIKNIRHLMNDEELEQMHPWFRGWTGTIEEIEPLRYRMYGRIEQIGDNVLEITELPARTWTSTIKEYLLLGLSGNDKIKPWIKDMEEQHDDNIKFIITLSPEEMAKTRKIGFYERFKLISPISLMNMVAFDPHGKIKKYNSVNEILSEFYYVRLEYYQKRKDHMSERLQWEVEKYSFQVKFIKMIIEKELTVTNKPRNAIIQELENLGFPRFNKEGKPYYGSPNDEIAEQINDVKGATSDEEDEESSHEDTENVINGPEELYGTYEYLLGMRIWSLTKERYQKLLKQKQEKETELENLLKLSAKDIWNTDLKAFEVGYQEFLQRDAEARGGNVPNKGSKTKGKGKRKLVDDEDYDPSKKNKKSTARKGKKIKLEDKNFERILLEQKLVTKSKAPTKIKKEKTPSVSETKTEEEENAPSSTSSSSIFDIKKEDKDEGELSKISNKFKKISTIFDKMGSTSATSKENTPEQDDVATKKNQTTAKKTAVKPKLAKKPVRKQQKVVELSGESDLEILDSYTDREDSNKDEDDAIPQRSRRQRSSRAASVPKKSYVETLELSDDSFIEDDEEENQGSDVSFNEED

[2] = target: T2, human Top2α (Homo sapiens, UniProt P11388); test: kinetoplast DNA decatenation assay with purified human TOP2-α
T2 construct: gene TOP2A

[3] = target: T1, yeast topoisomerase 2 (yTop2); test: in vitro pUC18 plasmid linearization (DNA cleavage) assay; supported by TOP2 overexpression hypersensitivity and resistant top2 mutants

T2 sequence (P11388 whole entry): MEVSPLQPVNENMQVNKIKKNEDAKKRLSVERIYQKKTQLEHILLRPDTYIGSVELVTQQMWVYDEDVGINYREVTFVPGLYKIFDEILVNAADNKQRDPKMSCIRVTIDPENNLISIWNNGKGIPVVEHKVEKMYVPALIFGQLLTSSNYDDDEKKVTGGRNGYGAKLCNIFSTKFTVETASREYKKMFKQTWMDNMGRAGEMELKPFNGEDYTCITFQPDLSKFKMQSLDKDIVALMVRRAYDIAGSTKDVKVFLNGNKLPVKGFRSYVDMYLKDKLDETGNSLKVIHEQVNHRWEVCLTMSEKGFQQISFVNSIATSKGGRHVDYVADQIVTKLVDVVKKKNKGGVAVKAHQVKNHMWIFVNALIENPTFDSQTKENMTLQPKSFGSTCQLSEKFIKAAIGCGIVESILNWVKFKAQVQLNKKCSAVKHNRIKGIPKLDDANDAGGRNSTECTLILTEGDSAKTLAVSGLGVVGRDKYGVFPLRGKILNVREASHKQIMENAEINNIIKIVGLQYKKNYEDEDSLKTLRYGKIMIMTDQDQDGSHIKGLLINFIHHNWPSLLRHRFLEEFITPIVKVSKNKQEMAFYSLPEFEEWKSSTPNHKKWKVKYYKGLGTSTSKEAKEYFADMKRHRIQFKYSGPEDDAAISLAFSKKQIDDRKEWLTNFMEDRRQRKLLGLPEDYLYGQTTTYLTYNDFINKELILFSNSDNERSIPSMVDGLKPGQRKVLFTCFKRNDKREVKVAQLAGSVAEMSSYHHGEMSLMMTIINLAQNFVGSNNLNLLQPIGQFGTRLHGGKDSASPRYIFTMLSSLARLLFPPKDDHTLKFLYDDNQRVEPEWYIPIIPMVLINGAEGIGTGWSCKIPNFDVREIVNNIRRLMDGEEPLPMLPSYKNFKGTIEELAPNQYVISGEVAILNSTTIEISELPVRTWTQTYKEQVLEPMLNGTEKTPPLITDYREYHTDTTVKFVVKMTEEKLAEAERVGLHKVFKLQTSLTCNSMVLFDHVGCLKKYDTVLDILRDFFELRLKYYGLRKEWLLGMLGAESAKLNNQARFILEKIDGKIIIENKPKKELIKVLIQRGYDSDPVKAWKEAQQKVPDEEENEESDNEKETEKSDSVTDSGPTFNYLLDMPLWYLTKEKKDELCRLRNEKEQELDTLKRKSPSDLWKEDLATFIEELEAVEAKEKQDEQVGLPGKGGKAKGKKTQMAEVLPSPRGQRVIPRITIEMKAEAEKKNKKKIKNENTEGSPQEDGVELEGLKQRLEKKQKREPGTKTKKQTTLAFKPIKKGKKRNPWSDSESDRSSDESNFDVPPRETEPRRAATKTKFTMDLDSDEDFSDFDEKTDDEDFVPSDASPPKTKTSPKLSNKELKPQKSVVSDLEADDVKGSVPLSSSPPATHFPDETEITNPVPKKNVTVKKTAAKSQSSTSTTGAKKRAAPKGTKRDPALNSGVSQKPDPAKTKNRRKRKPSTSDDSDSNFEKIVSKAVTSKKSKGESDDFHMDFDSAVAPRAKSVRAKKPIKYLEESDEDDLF

| Structure (SMILES) | in vitro pUC18 plasmid linearization (DNA cleavage) assay, reference Top2 poison [1] | IC50 [2] | in vitro pUC18 plasmid linearization (DNA cleavage) assay; supported by TOP2 ove [3] |
| --- | --- | --- | --- |
| COc1cc([C@@H]2c3cc4c(cc3[C@@H](O[C@@H]3O[C@@H]5CO[C@@H](C)O[C@H]5[C@H](O)[C@H]3O)[C@H]3COC(=O)[C@H]23)OCO4)cc(OC)c1O [ETOP, etoposide] | formation by yTop2 of DSBs in plasmid DNA (Fig. 7A & B), albeit less efficiently than etoposide |  |  |
| c1ccc2nc3c(nc2c1)[nH]c1ccccc13 [LS1, 6H-Indolo [2,3-b] quinoxaline] |  | 3 µM | LS1 promotes the in vitro formation by yTop2 of DSBs in plasmid DNA (Fig. 7A & B) |
